Experimental data from patent US20030108872A1, “Genomics-assisted rapid identification of targets” (priority 2000, published 2003).

How the values were obtained:
Type in all cases: cell-based
E. coli strain WO-153 = test: Genome-wide E. coli ORFmer overexpression rescue (OER) assay
Procedure: Over expression Rescue Assays. Over expression assays were conducted with the E. coli strain WO-153 described in Table 7. Construction of WO-0153. […] The asmB1 mutation is a G to A transition at position 628 in the 1pxC gene. […] The tolC gene encodes an outer membrane protein that acts as a channel for the acrAB efflux pumps (See for example, Fralick, J. 1996. J. Bacteriol. 178:5801-5805). […] WO-0153 was constructed as follows. The asmB1 mutation was introduced into a DNA fragment containing the 1pxC gene and 1 kb of the 5′ end of the secA gene by site directed mutagenesis of the 1pxC gene using standard methods. A kan^R resistance cassette flanked by FRT sites was introduced 60 bp downstream of the 1pxC gene. The linear DNA construct was introduced into electrocompetent and recombinogenic E. coli KM354 (pTP223) as described by Murphy (See for example, Murphy, 1998, J. Bacteriol. 180: 2063-71). Transformants were selected on LB agar containing kanamycin (35 mcg/ml) and screened for sensitivity to novobiocin (20 mcg/ml). The presence of the asmB1 mutation in clones with the expected phenotype was verified by DNA sequence analysis. The kanR gene flanked by FRT sites was then excised from the 1pxC-secA intergenic region using a previously described method (See for example, Cherepanove, P. P, and Wackernagel, W. 1995. Gene 158: 9-14.). […] 178:5138-5143; Fralick, J. (1996). J. Bacteriol. 178:5801-5805; Fralick, J. A., et al. (1994) J. Bacteriol. 176:6404-6406; and Cherepanove, P. P, et al., (1995) Gene 158:9-14. […] Plasmid library DNA was transformed into WO-153 by electroporation as described above. Cells were collected from transformation plates by scraping and were equalized to an optical density of 1.53 on a Beckman DU650 spectrophotometer([…]). Groups of five libraries were mixed and frozen in LB media plus 10% (vol/vol) glycerol by immersion in a dry-ice/ethanol bath for 5 minutes.
Over-expression assays were performed in liquid media in a microtiter format, in a gradient plate format, or in a disk-diffusion format. The protocol used for the microtiter format was similar to the protocol described above for the MIC assay. Aliquots of 5 library pools spanning the genome were thawed at room temperature and 200 ul of each was inoculated into its own 20 ml of Mueller Hinton media containing ampicillin at 200 ug/ml and anhydrous tetracycline inducer as appropriate. Typically, replicates were performed using a number of final inducer concentrations, ranging from 0 to 100 ng/ml. Following an adequate mixing, 50 ul of inoculated media was mixed with 50 ul of the test antibiotic in Nunc brand 96-well microtiterplates. Typically, each group of five libraries was mixed with a range of concentrations of antibiotic spanning the minimum inhibitory concentration (MIC) of the antibiotic. […] Columns may contain 10 different groups of libraries as well as null vector and no innoculum controls. After mixing inoculum plus media with antibiotic, well contents were mixed by pipetting and incubated at 37° C. for 16 to 20 hours. Optical density at 600 nm was measured using a Molecular Devices SpectraMAX 250 spectrophotometer. […] Contents of wells showing rescue were transferred to LB agar plates containing ampicillin at 100 ug/ml, and were spread to obtain single colonies. Alternately, it is possible to maintain selection for the antibiotic being assayed by including it in the agar plates at this point.
OER Assay using Disk diffusion and Gradient Plate Assay formats. In the Disk diffusion plate format, the 3 inocula (see below) were plated on MHB plates containing ampicillin (100 mcg/ml) and anhydrous tetracycline (a-tet, 100 ng/ml). Two paper disks (6 mm diameter) containing 10×and 20×MIC of the test antiobiotic were placed on the surface of the plate.

[1] = tested on: cells in which murA is regulated by PBAD; test: MIC by microbroth dilution in E. coli under-expressing murA; details: FIG. 6
Procedure: The wild-type gene murA, which encodes the enzyme UDP-N-acetylglucosamine enolpyruvate transferase, was knocked out in E. coli, and the gene was placed under ectopic expression in the yibD locus under regulation by PBAD with the regulator, L-arabinose.
(§1) Methods. […] IPTG was added to a final concentration of 0.1 mM and anhydrous-tetracycline was added to a final concentration of 100 ng/ml to the culture media for routine growth of GTC-EC#313 and GTC-EC#346, respectively.
(§2) The specificity and sensitivity of the resultant colonies to added drugs were followed by measuring the minimal inhibitory concentration (MIC) of trimethoprim, sulfamethozasone, phosphomycin and D-cycloserine at varying regulator levels. This was performed according to NCCLS (National Center for Clinical Laboratory Standards) recommendations(NCCLS, 1997, METHODS FOR DILUTION ANTIMICROBIAL SUSCEPTIBILITY TESTS FOR BACTERIA THAT GROW AEROBICALLY, 4th ed.; approved standard. NCCLS document M7-A4. NCCLS, Wayne, Pa.), in 100 μl volume in 96-well format, with serial two-fold dilutions of drug concentration.

[2] = tested on: B. subtilis NO-347 (BD170 thrC::Pspac-murA kanR ΔmurA::CmR); test: MIC by microbroth dilution in B. subtilis under-expressing murA; details: IPTG 0-0.1 mM, compared to the control strain, FIG. 10
Procedure: Materials and Methods. The materials are the same as discussed above. Plasmids are listed in Table 4 B. subtilis strains were routinely grown in LB media or on LB agar plates containing 1.5% agar (Sambrook et al., MOLECULAR CLONING: A LABORATORY MANUAL, 2nd ed., Cold Spring Harbor Laboratory Press, 1989). MIC determination is performed using microbroth dilution-cultures grown in Mueller Hinton broth in 96-well microtiter plates purchased from Nunc (Plates—Cat. No. 262162; Lids—Cat. No. 264122). When required, media were supplemented with 5 μg/ml chloramphenicol or 10 μg/ml kanamycin. IPTG was added to culture media at a final concentration of 0.05 mM for routine culture growth of B. subtilis NO-347 (BDI70 thrC::Pspac-murA kan^R ΔmurA::Cm^R), which is dependent on IPTG for growth.
The endogenous murA gene in NO-360 was deleted by allelic replacement as follows (see FIG. 9). DNA fragments flanking the 5′ and 3′ ends of the murA gene were amplified from B. subtilis 168 genomic DNA using primer pairs KO mura F1+R2 and KO murA F2+R1, respectively. The 5′ and 3′ flanking fragments were linked to the Cm^R gene from pEVP3 using the cross-over PCR technique with the primer pair KO mura F1+R1. The resulting PCR product (shown in FIG. 9B) was used to transform naturally competent B. subtilis NO-360. Cm^R clones were selected in the presence of 0.01 mM and 0.05 mM IPTG. Allelic replacement of murA in Cm^R clones was verified by PCR. Strain NO-347 (BD170 thrC::Pspac-murA Kan^R ΔmurA::Cm^R) was chosen for MIC determinations for phosphomycin in presence of various concentrations of the regulator IPTG.
MIC determinations. Determination of minimum inhibitory concentration (MIC) for phosphomycin, novobiocin, erythromycin and trimethoprim lactate were performed in 96-well microliter plates using the microbroth dilution technique as described in NCCLS. 1997. Methods for dilution antimicrobial susceptibility tests for bacteria that grow aerobically-fourth edition; approved standard. NCCLS document M7-A4. NCCLS, Wayne, Pa. For MIC determinations using strain NO-347, various concentrations (0-0.1 mM) were added to the media. Growth was quantitated by OD600 measurements using a SpectroMax 250 plate reader (Molecular Devices).

[3] = tested on: cells in which folA is regulated by PBAD, PLtetO-1, or Plac/ara-1; test: MIC by microbroth dilution in E. coli under-expressing folA; details: FIG. 5
Procedure: In another example, the wild-type native folA gene was knocked out, and a wild-type copy of the gene folA, which encodes the protein dihydrofolate reductase, was placed under ectopic expression in the yibD locus under regulation by PBAD with the regulator, L-arabinose. Dihydropteroate synthetase, the gene product of […], catalyzes the enzymatic reaction two steps before dihydrofolate reductase in the folate biosynthetic pathway.
as §1, §2

Which results are given for `N[C@@H]1CONC1=O` [D-cycloserine]?
identity of OER clones that were not the expected gene, by sequence analyses (E. coli strain WO-153): closely related ddlB gene; OER clones that were not the expected ddlA gene (E. coli strain WO-153; PCR verification of OER clones): 80%; sensitivity on under-expression of murA [1]: hypersensitivity

`CC[C@H]1OC(=O)[C@H](C)[C@@H](O[C@H]2C[C@@](C)(OC)[C@@H](O)[C@H](C)O2)[C@H](C)[C@@H](O[C@@H]2O[C@H](C)C[C@H](N(C)C)[C@H]2O)[C@](C)(O)C[C@@H](C)C(=O)[C@H](C)[C@@H](O)[C@]1(C)O` [erythromycin] was tested. Which “sensitivity (MIC) on regulated under-expression of murA” value [2] did it give?
Its value is “does not affect sensitivity”.

How did the “sensitivity (MIC) on regulated under-expression of murA” value [2] turn out when `CO[C@@H]1[C@@H](OC(N)=O)[C@@H](O)[C@H](Oc2ccc3c(O)c(NC(=O)c4ccc(O)c(CC=C(C)C)c4)c(=O)oc3c2C)OC1(C)C` [novobiocin] was run?
The value was “does not affect sensitivity”.

With `Cc1cc(NS(=O)(=O)c2ccc(N)cc2)no1` [sulfamethozasone] as the molecule, how does the “MIC with decreasing regulator (L-arabinose) level” value [3] read?
Its value is “decreases”.

What does the source list for `Oc1cc(Cl)ccc1Oc1ccc(Cl)cc1Cl` [triclosan]?
PCR verification of OER clones: expected target gene (E. coli strain WO-153; liquid microtiter assay, expected targets folA, murA, fabI): expected target gene was identifed; PCR verification of OER clones: expected clone (E. coli strain WO-153; two plate assay format (disk diffusion, gradient plate)): expected clone was isolated
